First: O=C1CC=C2N1CCN1C(=O)C[C@H]3CCCC[C@]231 (relative stereo)
Second: COCC1CCCN1S(=O)(=O)c1ccc2c(c1)C1(OCCCO1)C1=NCC(C)(C)CN12 (stereo unspecified)
The melting point of the first is lower: 105 to 125 °C for the first, 169 to 171 °C for the second.

First: O=C(NCc1ccccc1)c1ccnc(NC(=O)c2ccc(F)cc2)c1
Second: COc1ccc(NC(=O)CCCCC(=O)Cc2ccccc2)cc1
The melting point of the first is higher: 170 to 171 °C for the first, 131 to 132 °C for the second.

Compared with COCc1ccc(Cl)c(C2(C)C(=O)N(Cc3ccc(OC)cc3OC)c3ccc(Cl)cc32)c1 (stereo unspecified), COc1cc(OCC(=O)O)c(C)cc1SCc1ccc(-c2c(C)cc(C)cc2C)cc1 is higher in melting point: 122 °C for the first, 141 °C for the second.

First: O=C1NC(=O)C(Cc2ccc(OCCON=Cc3ccc4ccccc4c3)cc2)S1 (stereo unspecified)
Second: CCCN(CCC)CCOc1ccc(Cn2c(-c3ccc(O)cc3)c(C)c3cc(O)ccc32)cc1
The melting point of the first is higher: 108 to 111 °C for the first, 83 to 86 °C for the second.

First: Cc1ccc(C)c(S(=O)(=O)c2ccc(F)c3ccccc23)c1
Second: Cc1ccc(-c2nc(C)cc(Oc3ccccc3)n2)cc1
The melting point of the first is higher: 142 to 143 °C for the first, 90 to 91 °C for the second.

First: CC1(C)C(=O)N(c2ccc([N+](=O)[O-])c(C(F)(F)F)c2)C(=O)N1CCOCCN1C(=O)N(c2ccc([N+](=O)[O-])c(C(F)(F)F)c2)C(=O)C1(C)C
Second: Cn1c(=O)c2c(ncn2CC(=O)Nc2ccc(-n3nc(C(F)(F)F)cc3C3CC3)cc2)n(C)c1=O
The melting point of the first is higher: 186 to 188 °C for the first, 178 to 184 °C for the second.

First: Cc1nc2ccccc2c(=O)n1CCO
Second: CC1Cc2cccc(-c3ccccc3)c2C1=O (stereo unspecified)
The melting point of the first is higher: 159 to 160 °C for the first, 81.5 to 83 °C for the second.

Compared with COc1cccc2c1C1=C(CC2)NC(=O)CC1, COc1cc2nc(N3CCc4c(cccc4S(=O)(=O)N4CCN(C)CC4)C3)[nH]c(=O)c2cc1OC is higher in melting point: 190 °C for the first, 230 to 237 °C for the second.

Compared with CNC1=NS(=O)(=O)N=C(Oc2ccccc2[N+](=O)[O-])N1C(C)C, CCCCSc1ccc(C=O)cc1[N+](=O)[O-] is lower in melting point: 242 °C for the first, 93 °C for the second.

First: COc1cccc(Nc2nc(N)nc3c2-c2ccccc2C3)c1
Second: Clc1ccc2c(c1)C(c1ccccc1Cl)=NCc1cncnc1-2
The melting point of the first is higher: 187 °C for the first, 120 to 121 °C for the second.

First: Nc1ccc(NC(=O)CCCCC2CCSS2)cc1 (stereo unspecified)
Second: CCN1CCCCC1CCc1ccccc1NC(=O)C=Cc1ccccc1 (stereo unspecified)
The melting point of the first is lower: 55 to 60 °C for the first, 120 to 122 °C for the second.

First: COc1ccc2c(cccc2[C@H]2CO[C@H](CCCNC(=O)OCc3nccn3C(c3ccccc3)(c3ccccc3)c3ccccc3)OC2)c1
Second: CCCn1nc(Cc2ccc(-c3ccccc3S(=O)(=O)NC(=O)c3ccccc3)cc2)c(C(=O)O)c1Cc1ccccc1
The melting point of the first is higher: 130 to 132 °C for the first, 105 to 109 °C for the second.

First: CCC(C)(C)C(=O)Oc1cc2c(s1)CCN([C@H](C(=O)OC)c1ccccc1Cl)C2
Second: COc1cccc(NC(=O)NCC(=O)N2[C@@H](C(=O)OC(C)(C)C)CC[C@H]2c2ccccc2)c1 (racemic)
The melting point of the first is lower: 98 to 100 °C for the first, 174 °C for the second.

Compared with CN(C)[C@H]1C[C@@H]2CN(C(=O)c3ccc(NC(=O)c4ccccc4-c4ccccc4)cc3)c3ccccc3N2C1, O=C(Nc1ccc(Oc2ccccc2)cc1)N1CCN(c2ncnc3ccc(Br)cc23)CC1 is lower in melting point: 195 to 197 °C for the first, 169 to 170 °C for the second.

First: ICCC12CC3CC(CC(C3)C1)C2
Second: N#CC1(CC(=O)O)CCCCC1
The melting point of the first is lower: 93 to 94 °C for the first, 102 °C for the second.

First: CCC(c1ccc2[nH]c(C(F)(F)F)nc2c1)n1ccnc1 (stereo unspecified)
Second: COc1nc(C(F)(F)F)cc(=O)n1-c1ccc(Cl)c(C(=O)O)c1
The melting point of the first is lower: 173 °C for the first, 265 to 268 °C for the second.

First: CC(C)(C)c1ccc(SC(CCl)S(=O)(=O)c2ccc(Cl)cc2)cc1 (stereo unspecified)
Second: Cc1ccc(-c2c(NS(=O)(=O)c3ccc(C(C)(C)C)cc3)ncnc2OCCOc2ccc(C(C)O)cc2)cc1 (stereo unspecified)
The melting point of the first is lower: 52 to 68 °C for the first, 176 to 178 °C for the second.

First: CN1CCN(CCCNc2ccc(Cl)cc2N)CC1
Second: CN1CCN(Cc2ccc(NC(=O)N3CCCc4cc(Oc5ccnc(N)n5)ccc43)cc2C(F)(F)F)CC1
The melting point of the first is lower: 88 to 90 °C for the first, 120 to 123 °C for the second.

First: Clc1ccc2c(c1)C(c1ccccc1Cl)NCc1c[nH]cc1-2 (stereo unspecified)
Second: C=CCc1[nH]cc2c1-c1ccc(Cl)cc1C(c1ccccc1F)=NC2
The melting point of the first is lower: 211 to 212 °C for the first, 212 to 214 °C for the second.

First: O=C1c2ccccc2C(=O)N1CC1CCOC1 (stereo unspecified)
Second: O=C1C2=C(OCCO2)C(=O)c2cc(Cl)ccc21
The melting point of the first is lower: 114 to 118 °C for the first, 209 to 210 °C for the second.

First: Cc1cc(C)c(/C=C2\C(=O)N(C(=O)CNC(=O)OCc3ccccc3)c3ccccc32)[nH]1
Second: CC(C)(C)[N+]([O-])=Cc1ccccc1OCc1ccccc1
The melting point of the first is higher: 193 to 196 °C for the first, 111 °C for the second.

Compared with CC(=O)OC(c1ccccc1S(N)(=O)=O)C(C)F (stereo unspecified), C=CCOC(=O)CC(C(C)=O)S(=O)(=O)c1ccccc1 (stereo unspecified) is lower in melting point: 105 to 107 °C for the first, 62 to 64 °C for the second.

First: Cc1c(F)c(F)c(F)c(F)c1C(=O)O
Second: O=C(O)c1sc(-c2ccc(C(F)(F)F)cc2)nc1C(F)(F)F
The melting point of the first is lower: 80 to 82 °C for the first, 177 to 179 °C for the second.

First: Cc1ccc2ccc(Cn3c(=S)sc4ccccc43)c(O)c2n1
Second: CCOC(=O)c1cc2ccc(-c3ccc(C)cc3)cc2n1C
The melting point of the first is higher: 211 to 215 °C for the first, 98 to 99 °C for the second.

First: CCCCc1nc(Cl)c(CC(=O)OCC)c(Cc2ccc(C(=O)O)cc2)n1
Second: CCOC(=O)c1ccc(OCC(C)O)cc1 (stereo unspecified)
The melting point of the first is higher: 130 °C for the first, 52 to 53 °C for the second.

First: CCCCc1ccc(NCCS(=O)(=O)NCCCOc2cccc(CN3CCCCC3)c2)cc1
Second: c1ccc(COc2cccc(CCCn3ccnn3)c2)cc1
The melting point of the first is higher: 115 to 119 °C for the first, 74 to 75 °C for the second.

First: CN(C)c1ccc(-c2ccnc3c(C(=O)c4cccs4)cnn23)cc1NC(=O)c1ccncc1
Second: COc1ccc(-n2nc(CC(C(=O)N(C)O)c3ccc(Cl)cc3)cc2-c2ccc(Cl)cc2)cc1 (stereo unspecified)
The melting point of the first is higher: 151 to 153 °C for the first, 113 to 117 °C for the second.

Compared with Cc1nsc(OCC(Cl)(Cl)Cl)c1N, COC(=O)c1nc(Cl)c(Cl)c(Cl)c1N is higher in melting point: 58 to 60 °C for the first, 151 to 152 °C for the second.

Compared with CCCCN(CCCC)C(=S)C(=S)N(CCCC)CCCC, CN(CCSCc1n[nH]c(CSCCN(C)C(N)=S)n1)C(N)=S is higher in melting point: 35 to 38 °C for the first, 133 to 135 °C for the second.

Compared with CN(C)CCc1[nH]c2ccccc2c1CSc1ccccc1, CC(C)n1c(-c2ccccc2)nc(-c2ccc(F)cc2)c1C=O is higher in melting point: 97 to 99 °C for the first, 130 to 134 °C for the second.

Compared with CNC(=O)[C@@H](NC(=O)[C@@H](CC(=O)O)n1ccc(-c2ccc(-c3ccc(C#N)cc3)cc2)c1)C(C)(C)C, COC(=O)c1oc(C(C)(C)C)cc1NC(=O)Nc1ccc(C)cc1 is lower in melting point: 142 to 144 °C for the first, 78 to 79 °C for the second.

Compared with Cc1ccc2c(c1)c(N1CCNCC1)c(C#N)c(=O)n2C, N#Cc1ccc(O[C@@H]2c3cccnc3C[C@H]2N2CCC[C@@H](N)C2)c(Cl)c1 is lower in melting point: 274 °C for the first, 172 °C for the second.

First: CCC(=O)c1ccc(O)c(C)c1
Second: O=C(Br)c1ccc(F)c(Br)c1
The melting point of the first is higher: 83 to 85 °C for the first, 34.8 to 35.8 °C for the second.

First: OCc1c2c(nn1-c1ccc(F)cc1)CCCCC2
Second: O=C1CCC(O)(c2ccc(Cl)c(Cl)c2)CN1Cc1ccc(F)cc1 (stereo unspecified)
The melting point of the first is higher: 177 to 178 °C for the first, 146 °C for the second.

Compared with CC(O)Cc1c(O)c2cccnc2n(-c2ccc(Cl)c(Cl)c2)c1=O (stereo unspecified), O=C(O)c1cc(-n2c(-c3ccc(Cl)c(Cl)c3)cc3c2CCCC3)ccc1O is lower in melting point: 232 to 234 °C for the first, 210 to 211 °C for the second.

Compared with O=[N+]([O-])c1cc(S(=O)c2ccccc2)ccc1Cl (stereo unspecified), O=[N+]([O-])c1ccc(Nc2cccc(-n3cccc3)c2)c([N+](=O)[O-])c1 is higher in melting point: 86 to 87 °C for the first, 116 to 118 °C for the second.

First: O=C(Nc1ccc(Cl)cn1)c1cc(Cl)ccc1NCC1CCN(C2CCSC2)CC1 (stereo unspecified)
Second: O=C(Nc1ccc(Br)cn1)[NH+]([O-])C(=O)c1c(Cl)cccc1Cl (stereo unspecified)
The melting point of the first is lower: 178 to 181 °C for the first, 230 to 235 °C for the second.

First: CC(C)Cn1cnc2c(N)nc3ccc(-c4ccccc4)cc3c21
Second: CC(C)CCCNC1c2ccccc2C(=O)N1c1ccc2ccc(Cl)nc2n1 (stereo unspecified)
The melting point of the first is higher: 203 to 204 °C for the first, 131 °C for the second.

First: COc1cc(OC)c(-c2cc3ccccc3n2C)cc1C=CC(=O)c1ccc(S(=O)(=O)NO)cc1
Second: COc1cc(/C=C/C(=O)CC(=O)/C=C/c2cccc(O)c2OC)ccc1O
The melting point of the first is higher: > 260 °C for the first, 152 to 155 °C for the second.

First: [N-]=[N+]=NCc1ccc(C(=O)c2c(Cl)cccc2Cl)cc1
Second: C#CCOc1cc(C(=O)O)cc(N)c1-c1ccccc1
The melting point of the first is lower: 92 to 94 °C for the first, 172 to 173 °C for the second.

First: COc1ccccc1N1CCN(Cc2c(C3CC3)nn(-c3ccccc3)c2N)CC1
Second: O=C(NC(=O)C(c1ccccc1)c1ccccc1)OCCN1CCOCC1
The melting point of the first is lower: 70 to 74 °C for the first, 135 to 137 °C for the second.

First: CCCCc1nc2c(N)nc3cccnc3c2n1CCN
Second: Cc1ccccc1-n1c(C=Cc2ccccc2F)nc2nccnc2c1=O
The melting point of the first is lower: 175 to 176 °C for the first, > 250 °C for the second.

Compared with Clc1cc(-c2ccncc2)ccn1, CC1(C(=O)NN)C(=O)Nc2cc3[nH]c(-c4ccncc4)nc3cc21 (stereo unspecified) is higher in melting point: 193 to 196 °C for the first, > 300 °C for the second.

First: COc1ccc2c(c1)Cc1nnc(S(C)=O)n1C=C2 (stereo unspecified)
Second: CNC1C=Cc2cc(O)ccc2CC1 (stereo unspecified)
The melting point of the first is higher: 176 to 177 °C for the first, 152 °C for the second.

First: CCOc1ccc(SCCSc2ccc(OCC)cc2)cc1
Second: COc1ccccc1P(CCCP(c1ccccc1OC)c1ccccc1OC)c1ccccc1OC
The melting point of the first is lower: 90 °C for the first, 149 to 150 °C for the second.

Compared with CC(C)Nc1nccc(C#Cc2ccc(F)cc2)n1, COc1cc(C(C)C)c2c(c1)S(=O)(=O)N(COc1cc(C(F)(F)F)nn1-c1ccc(Cl)cc1)C2=O is higher in melting point: 128 to 129 °C for the first, 160 to 161 °C for the second.

First: CCc1c(Sc2cc(C)cc(C)c2)n(CC2=CCC(CO)C2)c(=O)[nH]c1=O (stereo unspecified)
Second: Cc1cc(C)c2sc(N)nc2c1
The melting point of the first is lower: 57 to 60 °C for the first, 142 to 144 °C for the second.

First: CCOC(=O)Nn1cccc1C(=O)c1ccccc1
Second: O=C(O)Cc1ccn2c(=O)c(C(=O)O)ccc2c1
The melting point of the first is lower: 68 to 70 °C for the first, > 250 °C for the second.

First: Nc1cc(I)c(I)cc1[N+](=O)[O-]
Second: Nc1ccc([N+](=O)[O-])cc1OCCO
The melting point of the first is higher: 196 to 197 °C for the first, 140 to 142 °C for the second.

CC#CCOc1ccc(S(=O)(=O)N[C@H]2CCCC[C@H]2C(=O)NO)cc1 and O=C(O)COc1ccc2c(c1)-c1nc(SC(c3ccccc3)c3ccccc3)sc1CC2 cannot be ordered by melting point: 140 to 145 °C for the first, 141 to 143 °C for the second.

With N#CCC(=O)N(N)c1c(Cl)cc(Cl)cc1Cl the melting point was 166 to 168 °C.
